Reference: patent US12163169B2, “Inducible chimeric cytokine receptors” (Allogene Therapeutics, Inc., priority 2018, dated 2024)
“Also recorded” adds a separate entry of the source.

How the values were obtained:
[1] = target: T1, BCMA ectodomain cytokine receptor (Homo sapiens, UniProt Q02223); test: HEK293T Stat reporter assay of BCMA ectodomain cytokine receptor with soluble APRIL trimers (Example 14); type: cell-based; conditions: 5 hours post-treatment; FIGS. 37C-37D
T1 construct: such as BCMA(1-54), TACI(1-165) and BAFFR(1-78); expressed in transfected cells; host or cells: HEK293T
T1 sequence (Q02223 1-54): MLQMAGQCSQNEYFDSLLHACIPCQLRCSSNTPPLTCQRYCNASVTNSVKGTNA
Source text: To test if the panel of ligand inducers and ectodomains can be further extended beyond the AP1903-FKBP(F36V) pairing, we tested signaling in response to other multimeric ligand inducers. As the Tumor Necrosis Family (TNF) superfamily of ligands are trimers, they engage their respective receptors in a multimeric fashion. Therefore, we fused ectodomains derived from the TNFR2 superfamily receptors, such as BCMA(1-54), TACI(1-165) and BAFFR(1-78), to the transmembrane and signaling domains of our chimeric cytokine receptors, and tested signaling in response to soluble trimeric ligand. Briefly, 20,000 HEK293T cells were plated into each well of a poly-L-lysine-coated 96-well flat-bottom plate and allowed to adhere overnight. The chimeric cytokine receptor (2.5 ng), a Stat response element that drives Firefly Luciferase (100 ng; Promega) and Renilla Luciferase control reporter vector (1 ng; Promega) were mixed in a final volume of 5 uL in Opti-MEM (Gibco) (“DNA mix”). 0.3 uL Lipofectamine 2000 (Invitrogen) in 5 uL Opti-MEM was incubated at room temperature for 5 minutes and then added to the DNA mix. […] 24 hours after transfection, cells were either left untreated, or treated with soluble BAFF or APRIL trimers diluted in serum-free media, and Stat reporter activity was determined 5 hours post-treatment using the Dual-Glo Luciferase Assay System (Promega). […]

[2] = target: FKBP12 containing the F36V mutation (Homo sapiens, UniProt P62942, F37V); conditions: literature (Jemal 2008; Scher and Kelly 1993); cited from earlier work
Sequence of FKBP12 containing the F36V mutation (P62942 2-108 F37V): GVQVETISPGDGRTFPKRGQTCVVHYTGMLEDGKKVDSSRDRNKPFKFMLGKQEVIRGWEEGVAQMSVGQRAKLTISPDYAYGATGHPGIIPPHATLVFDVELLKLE

CAR T cells = test: Target-independent AP1903-driven CAR T cell expansion, 2-week culture (Example 11); type: cell-based, human; conditions: FKBP switch CAR T cells, IL7R(316-459)/IL12Rb2(775-825) cytotails; reference IL-7 and IL-12p70 10 ng/mL each; 2 weeks
Protocol: Control CAR T cells or FKBP switch CAR T cells bearing IL7R(316-459)/IL12Rb2(775-825) cytotails were cultured with the indicated concentrations of AP1903, and in the absence of exogenous cytokines (unless specified in the case of positive controls) or target cells for 2 weeks. As a positive control, CAR T cells were alternatively supplemented with exogenous recombinant IL-7 (10 ng/mL; Miltenyi) and IL-12p70 (10 ng/mL; Biolegend) to mimic the dual IL-7R/IL12Rb2 outputs transmitted by FKBP switch activation. At the end of the 2-week culture, the number and quality of surviving CAR T cells were determined. Briefly, duplicate samples from each culture condition cells were harvested and stained using the Zombie NIR Fixable Viability Kit (Biolegend). Samples were washed with PBS, Fc blocked, then stained with the following antibody cocktail diluted in PBS+1% BSA: BUV395-conjugated anti-human CD3, BV510-conjugated anti-human CD8, BV605-conjugated human CD4 and FITC-conjugated v5 tag (for CAR detection), PE/Cy7-conjugated anti-human CD62L (Biolegend) and BV785-conjugated anti-human CD45RO (Biolegend). Finally, samples were washed in PBS and cell pellets were resuspended in 130 uL PBS+1% BSA containing 123count eBeads counting beads (Thermo Fisher) (10 uL counting beads in 120 uL PBS+1% BSA) prior to FACS analysis.

downstream Stat activation [1] | Molecule | binding affinity to FKBP12 containing the F36V mutation [2] | AP1903 concentration sufficient to reach the level of expansion achieved by exogenous cytokine supplementation (CAR T cells)
induced downstream Stat activation | APRIL: soluble APRIL trimers, TNF superfamily ligand |  | 
 | CC[C@H](C(=O)N1CCCC[C@H]1C(=O)O[C@H](CCc1ccc(OC)c(OC)c1)c1cccc(OCC(=O)NCCNC(=O)COc2cccc([C@@H](CCc3ccc(OC)c(OC)c3)OC(=O)[C@@H]3CCCCN3C(=O)[C@@H](CC)c3cc(OC)c(OC)c(OC)c3)c2)c1)c1cc(OC)c(OC)c(OC)c1 [AP1903] | high affinity; also recorded: much higher affinity than wild-type FKBP12 | ≤ 1 ng/mL
